Source: patent US11267826B2, “Penicillin-binding protein inhibitors” (priority 2017, dated 2022)

Experiments:
[1] = test system: S. aureus ATCC 29213; assay: Broth microdilution MIC assay, S. aureus; format: cell-based; details: Staphylococcus aureus, ATCC29213; broth microdilution, 16-20 hours at 37° C.; read-out: S. aureus 29213 MIC
Description: (§1) To determine the ability of test compounds to potentiate the inhibition of the growth of bacterial strains, classic cell based broth microdilution MIC assays were employed. MIC assays are performed according to CLSI methods except where otherwise noted (CLSI, 2011 and CLSI, 2009). The reference strain S. aureus ATCC 29213 and the hyper-permeable E. coli 901C were used to determine the ability of the PBP compounds to inhibit bacterial growth. Briefly, cryo-preserved bacterial cultures of clinical strains are streaked for isolation on appropriate agar medium, in this case Mueller Hinton II agar. Following incubation to allow formation of colonies these plates are sealed with parafilm and stored refrigerated for up to two weeks. For preparation of assay inocula and to ensure low variability, at least 5 colonies are picked from the agar plates with an inoculating loop and aseptically transferred to a culture tube containing 3 mL of Mueller-Hinton Broth (supplemented with divalent cations to required levels based on Manufacturers' certification). The broth culture is grown for 3-5 hours at 37° C. with shaking at 200 rpm. Meanwhile, 2-fold serial dilutions of test compounds are conducted in a 96 well plate with a final volume of 75 μL per well at 2-fold the final desired concentration. After the dilution plates are set up the growing cultures are then diluted in a cuvette containing MH II broth and the optical density is measured at 600 nm. Inocula are diluted such that 75 μL of this culture in Mueller-Hinton Broth results in a starting bacterial concentration of 5×10^5 CFU/mL when added to the dilution plates. The plates are incubated 16-20 hours at 37° C. The MIC is read visually as the lowest concentration well with no bacterial growth.

[2] = test system: hyper-permeable E. coli 901C; assay: Broth microdilution MIC assay, hyper-permeable E. coli; format: cell-based; details: Escherichia coli, read-out: E. coli 901C MIC
Description: as §1

Structure (SMILES)	MIC [1] [µg/mL]	MIC [2] [µg/mL]
Nc1nc(C(CC(=O)O)C(=O)N[C@H]2Cc3cccc(C(=O)O)c3OB2O)cs1 (mixture of isomers) [Example 99, (3R)-3-(2-(2-aminothiazol-4-yl)-3-carboxypropanamido)-2-hydroxy-3,4-dihydro-2H-benzo[e][1,2]oxaborinine-8-carboxylic Acid]	> 128	64 to 128
Nc1nc(C(=NO)C(=O)NC2Cc3cccc(C(=O)O)c3OB2O)ns1 (stereo in doubt) [Example 20, (S,Z)-3-(2-(5-amino-1,2,4-thiadiazol-3-yl)-2-(hydroxyimino)acetamido)-2-hydroxy-3,4-dihydro-2H-benzo[e][1,2]oxaborinine-8-carboxylic Acid]	> 128	> 128
Nc1ncc(C(=NO)C(=O)N[C@H]2Cc3cccc(C(=O)O)c3OB2O)s1 (stereo in doubt) [Example 95, (R,Z)-3-(2-(2-aminothiazol-5-yl)-2-(hydroxyimino)acetamido)-2-hydroxy-3,4-dihydro-2H-benzo[e][1,2]oxaborinine-8-carboxylic Acid]	< 64	> 128
Nc1ncc(C(=NO)C(=O)N[C@H]2Cc3cccc(C(=O)O)c3OB2O)s1 (stereo in doubt) [Example 96, (R,E)-3-(2-(2-aminothiazol-5-yl)-2-(hydroxyimino)acetamido)-2-hydroxy-3,4-dihydro-2H-benzo[e][1,2]oxaborinine-8-carboxylic Acid]	64 to 128	> 128
CO/N=C(\C(=O)N[C@H]1Cc2cccc(C(=O)O)c2OB1O)c1nsc(N)n1 [Example 2, (R,Z)-3-(2-(5-amino-1,2,4-thiadiazol-3-yl)-2-(methoxyimino)acetamido)-2-hydroxy-3,4-dihydro-2H-benzo[e][1,2]oxaborinine-8-carboxylic Acid]	> 128	< 64
CO/N=C(/C(=O)N[C@H]1Cc2cccc(C(=O)O)c2OB1O)c1cccnc1 [Example 3, (R,E)-2-hydroxy-3-(2-(methoxyimino)-2-(pyridin-3-yl)acetamido)-3,4-dihydro-2H-benzo[e][1,2]oxaborinine-8-carboxylic Acid]	> 128	> 128
CO/N=C(\C(=O)N[C@H]1Cc2cccc(C(=O)O)c2OB1O)c1cccnc1 [Example 4, (R,Z)-2-hydroxy-3-(2-(methoxyimino)-2-(pyridin-3-yl)acetamido)-3,4-dihydro-2H-benzo[e][1,2]oxaborinine-8-carboxylic Acid]	64 to 128	> 128
CO/N=C(\C(=O)N[C@H]1Cc2cccc(C(=O)O)c2OB1O)c1ccc2c(c1)CNC2 [Example 5, (R,Z)-2-hydroxy-3-(2-(isoindolin-5-yl)-2-(methoxyimino)acetamido)-3,4-dihydro-2H-benzo[e][1,2]oxaborinine-8-carboxylic Acid]	> 128	> 128
O=C(N[C@H]1Cc2cccc(C(=O)O)c2OB1O)/C(=N\O)c1ccc2c(c1)CNC2 [Example 8, (R,Z)-2-hydroxy-3-(2-(hydroxyimino)-2-(isoindolin-5-yl)acetamido)-3,4-dihydro-2H-benzo[e][1,2]oxaborinine-8-carboxylic Acid]	< 64	< 64
Nc1nc(/C(=N/O)C(=O)N[C@@H]2Cc3cccc(C(=O)O)c3OB2O)cs1 [Example 9, (S,Z)-3-(2-(2-aminothiazol-4-yl)-2-(hydroxyimino)acetamido)-2-hydroxy3,4-dihydro-2H-benzo[e][1,2]oxaborinine-8-carboxylic Acid]	> 128	> 128
NCCNc1nc(/C(=N/O)C(=O)N[C@H]2Cc3cccc(C(=O)O)c3OB2O)cs1 [Example 10, (R,Z)-3-(2-(2-((2-aminoethyl)amino)thiazol-4-yl)-2-(hydroxyimino)acetamido)-2-hydroxy-3,4-dihydro-2H-benzo[e][1,2]oxaborinine-8-carboxylic Acid]	64 to 128	> 128
N=C(N)Nc1nc(/C(=N/O)C(=O)N[C@H]2Cc3cccc(C(=O)O)c3OB2O)cs1 [Example 11, (R,Z)-3-(2-(2-guanidinothiazol-4-yl)-2-(hydroxyimino)acetamido)-2-hydroxy-3,4-dihydro-2H-benzo[e][1,2]oxaborinine-8-carboxylic Acid]	< 64	> 128
Nc1nc(/C(=N/OCCO)C(=O)N[C@H]2Cc3cccc(C(=O)O)c3OB2O)cs1 [Example 13, (R,Z)-3-(2-(2-aminothiazol-4-yl)-2-((2-hydroxyethoxy)imino)acetamido)-2-hydroxy-3,4-dihydro-2H-benzo[e][1,2]oxaborinine-8-carboxylic Acid]	64 to 128	> 128
Nc1cc(/C(=N/O)C(=O)N[C@H]2Cc3cccc(C(=O)O)c3OB2O)ccn1 [Example 14, (R,Z)-3-(2-(2-aminopyridin-4-yl)-2-(hydroxyimino)acetamido)-2-hydroxy-3,4-dihydro-2H-benzo[e][1,2]oxaborinine-8-carboxylic Acid]	< 64	> 128
Nc1cc(/C(=N\O)C(=O)N[C@H]2Cc3cccc(C(=O)O)c3OB2O)ccn1 [Example 15, (R,E)-3-(2-(2-aminopyridin-4-yl)-2-(hydroxyimino)acetamido)-2-hydroxy-3,4-dihydro-2H-benzo[e][1,2]oxaborinine-8-carboxylic Acid]	64 to 128	> 128
Nc1cccc(/C(=N/O)C(=O)N[C@H]2Cc3cccc(C(=O)O)c3OB2O)n1 [Example 16, (R,Z)-3-(2-(6-aminopyridin-2-yl)-2-(hydroxyimino)acetamido)-2-hydroxy-3,4-dihydro-2H-benzo[e][1,2]oxaborinine-8-carboxylic Acid]	< 64	64 to 128
Nc1nc(/C(=N/OCC(=O)O)C(=O)N[C@H]2Cc3cccc(C(=O)O)c3OB2O)cs1 [Example 18, (R,Z)-3-(2-(2-aminothiazol-4-yl)-2-((carboxymethoxy)imino)acetamido)-2-hydroxy-3,4-dihydro-2H-benzo[e][1,2]oxaborinine-8-carboxylic Acid]	> 128	< 64
Nc1nc(/C(=N/O)C(=O)N[C@H]2Cc3cccc(C(=O)O)c3OB2O)ns1 [Example 19, (R,Z)-3-(2-(5-amino-1,2,4-thiadiazol-3-yl)-2-(hydroxyimino)acetamido)-2-hydroxy-3,4-dihydro-2H-benzo[e][1,2]oxaborinine-8-carboxylic Acid]	64 to 128	> 128
C[N+]1(Cc2ccc3c(c2C(=O)[O-])OB(O)[C@@H](NC(=O)/C(=N\O)c2csc(N)n2)C3)CCCC1 [Example 26, (R,Z)-3-(2-(2-aminothiazol-4-yl)-2-(hydroxyimino)acetamido)-2-hydroxy-7-((1-methylpyrrolidin-1-ium-1-yl)methyl)-3,4-dihydro-2H-benzo[e][1,2]oxaborinine-8-carboxylate]	< 64	
Nc1nc(/C(=N/O)C(=O)N[C@H]2Cc3ccc(CN4CCC(CO)CC4)c(C(=O)O)c3OB2O)cs1 [Example 29, (R,Z)-3-(2-(2-aminothiazol-4-yl)-2-(hydroxyimino)acetamido)-2-hydroxy-7-((4-(hydroxymethyl)piperidin-1-yl)methyl)-3,4-dihydro-2H-benzo[e][1,2]oxaborinine-8-carboxylic Acid]	> 128	
C[N+]1(Cc2ccc3c(c2C(=O)[O-])OB(O)[C@@H](NC(=O)/C(=N\O)c2csc(N)n2)C3)CCC(CO)CC1 (stereo partly drawn) [Example 30, (R,Z)-3-(2-(2-aminothiazol-4-yl)-2-(hydroxyimino)acetamido)-2-hydroxy-7-((4-(hydroxymethyl)-1-methylpiperidin-1-ium-1-yl)methyl)-3,4-dihydro-2H-benzo[e][1,2]oxaborinine-8-carboxylate]	< 64	
CN(CC(=O)O)Cc1ccc2c(c1C(=O)O)OB(O)[C@@H](NC(=O)/C(=N\O)c1csc(N)n1)C2 [Example 31, (R,Z)-3-(2-(2-aminothiazol-4-yl)-2-(hydroxyimino)acetamido)-7-(((carboxymethyl)(methyl)amino)methyl)-2-hydroxy-3,4-dihydro-2H-benzo[e][1,2]oxaborinine-8-carboxylic Acid]	> 128	
C[N+]1(Cc2cc3c(c(C(=O)[O-])c2)OB(O)[C@@H](NC(=O)/C(=N\O)c2csc(N)n2)C3)CCCC1 [Example 34, (R,Z)-3-(2-(2-aminothiazol-4-yl)-2-(hydroxyimino)acetamido)-2-hydroxy-6-((1-methylpyrrolidin-1-ium-1-yl)methyl)-3,4-dihydro-2H-benzo[e][1,2]oxaborinine-8-carboxylate]	< 64	
COC(=O)CCc1cc2c(c(C(=O)O)c1)OB(O)[C@@H](NC(=O)/C(=N\O)c1csc(N)n1)C2 [Example 36, (R,Z)-3-(2-(2-aminothiazol-4-yl)-2-(hydroxyimino)acetamido)-2-hydroxy-6-(3-methoxy-3-oxopropyl)-3,4-dihydro-2H-benzo[e][1,2]oxaborinine-8-carboxylic Acid]	< 64	
Nc1nc(/C(=N/O)C(=O)N[C@H]2Cc3cc(C(=O)O)cc(C(=O)O)c3OB2O)cs1 [Example 38, (R,Z)-3-(2-(2-aminothiazol-4-yl)-2-(hydroxyimino)acetamido)-2-hydroxy-3,4-dihydro-2H-benzo[e][1,2]oxaborinine-6,8-dicarboxylic Acid]	> 128	
